According to patent US20050192247A1, “Method of treating cancers” (priority 2004, published 2005):
Structures can show the parent of a compound that is named as a salt.

What was measured:
[1] = system: Human pancreatic cancer Panc-1 cells; assay: Panc-1 human pancreatic cancer xenograft mouse model; assay type: in vivo; settings: post-treatment observation 19 days
Method: Human pancreatic cancer Panc-1 cells (2×10^6) are implanted subcutaneously into male athymic nude (Ncr) mice. Following establishment of tumor nodules (about 50 mm^3), the animals are randomized into four groups of five animals per group. The animals are treated intraperitoneally with one of four treatments: β-lapachone at 40 mg/kg in 40% hydroxypropy-β-cyclodextran; gemcitabine (Gemzar®) at 120 mg/kg (in PBS); β-lapachone (40 mg/kg)+gemcitabine (120 mg/kg); or vehicle control. The mice receive a total of ten treatments, administered every three days (on study day 5, 8, 11, 14, 17, 20, 31, 34, 37, and 40). The combination therapy group receives β-lapachone and gemcitabine on the same day in each treatment. Following treatment, the animals are observed for an additional 19 days. Tumors are measured throughout the treatment and post-treatment periods.

[2] = system: A549 human lung cancer cells; assay: A549 human lung cancer xenograft mouse model; assay type: in vivo; settings: for tumor growth during treatment: eight treatments
Method: The anti-tumor activity of β-lapachone is examined using a human lung cancer xenograft model. Briefly, athymic female nude mice (Ncr) are inoculated subcutaneously with 4×10^6 A549 human lung cancer cells, and the tumors are allowed to grow to approximately 50 mm^3 in size. The animals are randomized into five groups of seven animals per group, and treated intraperitoneally every three days with one of the following five regimens: β-lapachone at 40 mg/kg in 40% hydroxypropy-β-cyclodextran (“HPBCD”); β-lapachone at 60 mg/kg in 40% HPBCD; gemcitabine (GEMZAR®) at 120 mg/kg in PBS; β-lapachone (40 mg/kg)+gemcitabine (120 mg/kg); or vehicle control (40% HPBCD). The combination therapy group receives treatments with β-lapachone and gemcitabine at the indicated concentrations on the same day, every three days. Mice receive a total of eight treatments. Mean tumor volume is analyzed; data points in FIG. 2 represent the arithmetic mean+/−SEM of five tumors.

[3] = system: CEM T lymphoblastoid cells; settings: cited from earlier work
[4] = system: human ovarian cancer, human prostate cancer, human breast cancer, human multiple myeloma; settings: cited from earlier work
[5] = system: human breast cancer cells; settings: cited from earlier work
[6] = system: ovary, colon, and pancreatic cancer cells; settings: through induction of caspase; cited from earlier work
[7] = in vivo; cited from earlier work
[8] = cited from earlier work

SMILES	tumor re-growth after termination of treatment ([1]; gemcitabine 120 mg/kg) [%]	tumor growth during treatment ([2]; gemcitabine 120 mg/kg intraperitoneally every three days)	internucleosomal DNA fragmentation [3]	tumor re-growth after termination of treatment ([1]; β-lapachone 40 mg/kg)	tumor growth during treatment ([2]; β-lapachone 60 mg/kg intraperitoneally every three days)	retardation of tumor growth, 60 mg/kg compared with 40 mg/kg ([2]; β-lapachone 60 mg/kg versus 40 mg/kg)	anti-tumor effect as a single agent [4]	type of cell death induced [5]	type of cell death induced [6]	tolerability [7]	water solubility [8]
Nc1ccn([C@@H]2O[C@H](CO)[C@@H](O)C2(F)F)c(=O)n1 [gemcitabine, 2′-deoxy-2′,2′-difluorocytidine monohydrochloride (β-isomer), reference compound]	400	retarded tumor growth	induces internucleosomal DNA fragmentation	–	–	–	–	–	–	–	–
CC1(C)CCC2=C(O1)c1ccccc1C(=O)C2=O [β-lapachone, 3,4-dihydro-2,2-dimethyl-2H-naphtho[1,2-b]pyran-5,6-dione]	–	–	–	no significant re-growth	retarded tumor growth	more effective at retarding tumor growth	decrease the number of tumors, reduce tumor size, or increase survival time	induces necrosis	apoptosis	generally well-tolerated	non-water soluble
